Data as given in patent US20150105252A1, “SUBSTITUTED PYRAZOLES AS HERBICIDES” (E I DU PONT DE NEMOURS AND COMPANY, priority 2013, published 2015).

Key:
Conditions in all cases: scale 0 to 100
[1] = test system: pigweed; experiment: Test D preemergence; assay type: in vivo, Amaranthus retroflexus
Description: (§1) Seeds of plant species selected from bluegrass (annual bluegrass, Poa annua), blackgrass (Alopecurus myosuroides), canarygrass (littleseed canarygrass, Phalaris minor), chickweed (common chickweed, Stellaria media), galium (catchweed bedstraw, Galium aparine), bromegrass, downy (downy bromegrass, Bromus tectorum), field poppy (Papaver rhoeas), field violet (Viola arvensis), foxtail, green (green foxtail, Setaria viridis), deadnettle (henbit deadnettle, Lamium amplexicaule), ryegrass, Italian (Italian ryegrass, Lolium multiflorum), kochia (Kochia scoparia), lambsquarters (Chenopodium album), oilseed rape (Brassica napus), pigweed (redroot pigweed, Amaranthus retroflexus), chamomile (scentless chamomile, Matricaria inodora), speedwell (bird's-eye speedwell, Veronica persica), barley, spring (spring barley, Hordeum vulgare), wheat, spring (spring wheat, Triticum aestivum), buckwheat, wild (wild buckwheat, Polygonum convolvulus), mustard, wild (wild mustard, Sinapis arvensis), oat, wild (wild oat, Avena fatua), radish, wild (wild radish, Raphanus raphanistrum), windgrass (Apera spica-venti), Russian thistle (Salsola kali), barley, winter (winter barley, Hordeum vulgare), and wheat, winter (winter wheat, Triticum aestivum) were planted into a silt loam soil and treated preemergence with test chemicals formulated in a non-phytotoxic solvent mixture which included a surfactant.
(§2) At the same time, these species were planted in pots containing Redi-Earth® planting medium (Scotts Company, 14111 Scottslawn Road, Marysville, Ohio 43041) comprising spaghnum peat moss, vermiculite, wetting agent and starter nutrients and treated with postemergence applications of the test chemicals formulated in the same manner. Plants ranged in height from 2 to 18 cm (1- to 4-leaf stage). Treated plants and controls were maintained in a controlled growth environment for 14 to 21 days after which time all species were compared to controls and visually evaluated. Plant response ratings, summarized in Table D, are based on a scale of 0 to 100 where 0 is no effect and 100 is complete control. A dash (-) response means no test result.

[2] = test system: speedwell; experiment: Test D postemergence; assay type: in vivo, Veronica persica
Description: as §1, §2

[3] = test system: ryegrass, Italian; experiment: Test D postemergence; assay type: in vivo, Lolium multiflorum
Description: as §1, §2

[4] = test system: windgrass; experiment: Test D postemergence; assay type: in vivo, Apera spica-venti
Description: as §1, §2

[5] = test system: blackgrass; experiment: Test D preemergence; assay type: in vivo, Alopecurus myosuroides
Description: as §1, §2

[6] = test system: field violet; experiment: Test D postemergence; assay type: in vivo, Viola arvensis
Description: as §1, §2

[7] = test system: canarygrass; experiment: Test D preemergence; assay type: in vivo, Phalaris minor
Description: as §1, §2

[8] = test system: pigweed; experiment: Test D postemergence; assay type: in vivo, Amaranthus retroflexus
Description: as §1, §2

Compound	Plant response rating, Pigweed ([1]; 62 g ai/ha)	Plant response rating, Pigweed ([1]; 125 g ai/ha)	Plant response rating, Pigweed ([1]; 250 g ai/ha)	Speedwell plant response rating ([2]; Postemergence, 31 g ai/ha)	Speedwell plant response rating ([2]; Postemergence, 125 g ai/ha)	Speedwell plant response rating ([2]; Postemergence, 250 g ai/ha)	Speedwell plant response rating ([2]; postemergence, 62 g ai/ha)	Ryegrass, Italian plant response rating ([3]; Postemergence, 31 g ai/ha)	Ryegrass, Italian plant response rating ([3]; Postemergence, 125 g ai/ha)	Ryegrass, Italian plant response rating ([3]; Postemergence, 250 g ai/ha)	Ryegrass, Italian plant response rating ([3]; postemergence, 62 g ai/ha)	Windgrass plant response rating ([4]; Postemergence, 31 g ai/ha)	Windgrass plant response rating ([4]; Postemergence, 125 g ai/ha)	Windgrass plant response rating ([4]; Postemergence, 250 g ai/ha)	Windgrass plant response rating ([4]; postemergence, 62 g ai/ha)	Plant response rating, Blackgrass ([5]; 62 g ai/ha)	Plant response rating, Blackgrass ([5]; 125 g ai/ha)	Plant response rating, Blackgrass ([5]; 250 g ai/ha)	Field Violet plant response rating ([6]; Postemergence, 31 g ai/ha)	Field Violet plant response rating ([6]; Postemergence, 125 g ai/ha)	further results
CCc1cc(C(=O)NC(C)C)nn1Cc1ccnc(C(F)(F)F)c1 [Compound 103]	100	100	100	35	55	70	45	5	5	35	5	10	25	35	20	50	85	100	35	60	Plant response rating, Pigweed ([1]; 31 g ai/ha): 100; Field Violet plant response rating ([6]; Postemergence, 250 g ai/ha): 60; Field Violet plant response rating ([6]; postemergence, 62 g ai/ha): 55; Plant response rating, Canarygrass ([7]; 31 g ai/ha): 5; Plant response rating, Canarygrass ([7]; 62 g ai/ha): 55; Plant response rating, Canarygrass ([7]; 125 g ai/ha): 80; Plant response rating, Canarygrass ([7]; 250 g ai/ha): 100; Pigweed plant response rating ([8]; Postemergence, 31 g ai/ha): 70; Pigweed plant response rating ([8]; Postemergence, 125 g ai/ha): 65; Pigweed plant response rating ([8]; Postemergence, 250 g ai/ha): 70; Pigweed plant response rating ([8]; postemergence, 62 g ai/ha): 60
CCCc1cc(C(=O)NCC(F)(F)F)nn1Cc1cc(C(F)(F)F)nn1C [Compound 138]	100	100	100	100	100	100	100	15	15	55	15	20	35	60	20	30	85	100	80	75	Plant response rating, Blackgrass ([5]; 31 g ai/ha): 15; Field Violet plant response rating ([6]; Postemergence, 250 g ai/ha): 95; Field Violet plant response rating ([6]; postemergence, 62 g ai/ha): 80; Plant response rating, Canarygrass ([7]; 31 g ai/ha): 15; Plant response rating, Canarygrass ([7]; 62 g ai/ha): 70; Plant response rating, Canarygrass ([7]; 125 g ai/ha): 100; Plant response rating, Canarygrass ([7]; 250 g ai/ha): 100; Pigweed plant response rating ([8]; Postemergence, 31 g ai/ha): 90; Pigweed plant response rating ([8]; Postemergence, 125 g ai/ha): 90; Pigweed plant response rating ([8]; Postemergence, 250 g ai/ha): 90; Pigweed plant response rating ([8]; postemergence, 62 g ai/ha): 90
CCOc1cc(C(=O)NC2CC2)nn1Cc1ccnc(C(F)(F)F)c1 [Compound 189]	95	100	100	70	85	90	70	10	20	30	10	15	20	35	15	60	80	100	60	100	Plant response rating, Blackgrass ([5]; 31 g ai/ha): 35; Field Violet plant response rating ([6]; Postemergence, 250 g ai/ha): 100; Field Violet plant response rating ([6]; postemergence, 62 g ai/ha): 60; Plant response rating, Canarygrass ([7]; 31 g ai/ha): 10; Plant response rating, Canarygrass ([7]; 62 g ai/ha): 50; Plant response rating, Canarygrass ([7]; 125 g ai/ha): 85; Plant response rating, Canarygrass ([7]; 250 g ai/ha): 100; Pigweed plant response rating ([8]; Postemergence, 31 g ai/ha): 70; Pigweed plant response rating ([8]; Postemergence, 125 g ai/ha): 70; Pigweed plant response rating ([8]; Postemergence, 250 g ai/ha): 75; Pigweed plant response rating ([8]; postemergence, 62 g ai/ha): 70
